Source: patent US20120230951A1 (priority 2011, published 2012)

Experiments:
[1] = test system: GT-1a pRLuc H771b 75 S/I subgenomic replicon cell line; test: HCV GT-1a replicon luciferase reporter assay; format: cell-based; conditions: Hepatitis C virus, GT1A, 72 h, read-out: GT-1a (IC50) (nM)
How it was run: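 Huh-7-derived subgenomic replicon cells (GT-1b Con1 2209-23, 5000/well; GT-1a H77 chimera with Con1 NS3 first 75 aa, 3000/well) in 5% FBS DMEM; compounds added 24 h post-plating, 3-fold dilutions, 1% DMSO. Renilla luciferase read after 72 h; EC50 is 50% signal reduction versus untreated, non-linear fit.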

[2] = test system: HCV GT1b replicon (2209-23 cell line, GT-1b Con1 subgenomic replicon in Huh-7); test: HCV GT1b replicon luciferase reporter assay; format: cell-based; conditions: Hepatitis C virus, Huh-7, 2209-23 cells (GT-1b Con1), Renilla luciferase read 72 hours after addition of compounds, read-out: GT-1b (IC50)
From the text: Determination of compounds HCV GT1b inhibitory replicon activity using the replicon luciferase reporter assay
The 2209-23 cell line was developed at Roche by stable transfection of the hepatoma cell line Huh-7 with a GT-1b Con1 subgenomic bicistronic replicon as previously described. Subgenomic replicon cell line was established in cured Huh7 cells, obtained from R. Bartenschlager (J. Virol. 2003 March; 77 (5):3007-19) The GT-1a H77 subgenomic replicon vector pRLuc H771b 75 S/I, was created by replacing the non structural region of the GT-1b Con1 subgenomic replicon by the one of the H77 strain, except for the first 75 amino acids of the NS3 protein that are from GT-1b Con1 strain. (J. Virol. 2001 77:5352-59) The GT-1a pRLuc H771b 75 S/I subgenomic replicon cell line was established in cured Huh7 cells, obtained from R. Bartenschlager. (J. Virol. 2003 March; 77 (5):3007-19)
All the subgenomic replicon cell lines were cultured in Dulbecco's Modified Eagle Medium (DMEM-Glutamax™-I; Invitrogen Cat #10569-010). The medium was supplemented with 10% Fetal Bovine Serum (Invitrogen Cat #10082-147), 1% penicillin/streptomycin (Mediatech Cat #30-002-CI) and 500 μg/ml of G418 (Mediatech Cat #30-234-CI). Cells were maintained at 37° C. in a humidified 5% CO2 atmosphere.
2209-23 cells were plated at a cell density of 5000 cells per well in 96 well plates (Becton Dickinson, Cat #35 3296). Cells were plated in 90 μl of Dulbecco's Modified Eagle Medium (DMEM-Glutamax™-I), (Invitrogen Cat #10569-010) medium was supplemented with 5% Fetal Bovine Serum (Invitrogen Cat #10082-147), 1% penicillin/streptomycin (Mediatech Cat #30-002-CI). The pRluc H771b 75 S/I cells were plated in 96-well plate at 3000 cells/well in DMEM-Glutamax™-I containing 5% FBS and 1% penicillin/streptomycin in 90 μl final volume. Cells were allowed to equilibrate for 24 hours at 37° C. and 5% CO2 at which time compounds were added. Compounds (or medium as a control) were added 24 hours post-plating in 3 fold dilutions at a final DMSO concentration of 1% in 10 ul volume. Renilla luciferase reporter signal was read 72 hours after addition of compounds using the Renilla Luciferase Assay System (Promega, cat #E2820). EC50 values were defined as the compound concentration at which a 50% reduction in the levels of renilla luciferase reporter was observed as compared to control samples in the absence of compound and was determined by non-linear fitting of compound dose-response data. The EC50 was approximated if maximum percentage inhibition was less than 90% and more than 70%.

SMILES | IC50 [1] [nM] | IC50 [2] [pM]
COC(=O)N[C@H]1CC(O)c2cccc3c2N(C1=O)[C@H](c1ncc(-c2ccc(-c4ccc(-c5cnc([C@@H]6CCCN6C(=O)[C@@H](NC(=O)OC)C(C)C)[nH]5)cc4)cc2)[nH]1)C3 (stereo partly drawn) [Compound I-29, {(2S,5S)-7-Hydroxy-2-[5-(4′-{2-[(S)-1-((S)-2-methoxycarbonylamino-3-methyl-butyryl)-pyrrolidin-2-yl]-3H-imidazol-4-yl}-biphenyl-4-yl)-1H-imidazol-2-yl]-4-oxo-1,2,4,5,6,7-hexahydro-azepino[3,2,1-hi]indol-5-yl}-carbamic acid methyl ester] | 1.02 | 10
COC(=O)N[C@H]1CCc2cccc3c2N(C1=O)[C@H](c1ncc(-c2ccc(-c4ccc5cc(-c6cnc([C@@H]7CCCN7C(=O)[C@@H](NC(=O)OC)C(C)C)[nH]6)ccc5c4)cc2)[nH]1)C3 [Compound I-31, {(2S,5S)-2-[5-(4-(6-{2-[(S)-1-((S)-2-Methoxycarbonylamino-3-methyl-butyryl)-pyrrolidin-2-yl]-3H-imidazol-4-yl}-naphthalen-2-yl)-phenyl)-1H-imidazol-2-yl]-4-oxo-1,2,4,5,6,7-hexahydro-azepino[3,2,1-hi]indol-5-yl}-carbamic acid methyl ester] | 1.13 | 410
COC(=O)N[C@H]1CCc2cccc3c2N(C1=O)[C@H](c1ncc(-c2ccc(-c4ccc(-c5cnc([C@@H]6CCCN6C(=O)[C@@H](NC(=O)OC)C(C)C)[nH]5)cc4)c(F)c2)[nH]1)C3 [Compound I-35, {(2S,5S)-2-[5-(2-Fluoro-4′-{2-[(S)-1-((S)-2-methoxycarbonylamino-3-methyl-butyryl)-pyrrolidin-2-yl]-1H-imidazol-4-yl}-biphenyl-4-yl)-1H-imidazol-2-yl]-4-oxo-1,2,4,5,6,7-hexahydro-azepino[3,2,1-hi]indol-5-yl}-carbamic acid methyl ester] | 5.92 | 10
COC(=O)N[C@@H](CCS(C)(=O)=O)C(=O)N1CCC[C@H]1c1ncc(-c2ccc(-c3ccc(-c4cnc([C@@H]5Cc6cccc7c6N5C(=O)[C@@H](NC(=O)OC)CC7)[nH]4)cc3)cc2)[nH]1 [Compound I-51, {(2S,5S)-2-[5-(4-{2-[(S)-1-((S)-4-Methanesulfonyl-2-methoxycarbonylamino-butyl)-pyrolidin-2-yl]-3H-imidazol-4-yl}-biphenyl-4-yl)-1H-imidazol-2-yl]-4-oxo-1,2,4,5,6,7-hexahydro-azepino[3,2,1-hi]indol-5-yl}-carbamic acid methyl ester] | 16.6 | 30
COC(=O)N[C@H]1CCc2cccc3c2N(C1=O)[C@H](c1ncc(-c2ccc(-c4cnc5cc(-c6cnc([C@@H]7CCCN7C(=O)[C@@H](NC(=O)OC)C(C)C)[nH]6)ccc5n4)cc2)[nH]1)C3 [Compound I-52, ((2S,5S)-2-{5-[4-(6-{2-[(S)-1-((S)-2-Methoxycarbonylamino-3-methyl-butyryl)-pyrrolidin-2-yl]-3H-imidazol-4-yl}-quinoxalin-2-yl)-phenyl]-1H-imidazol-2-yl}-4-oxo-1,2,4,5,6,7-hexahydro-azepino[3,2,1-hi]indol-5-yl)-carbamicacid methyl ester] | 0.41 | 30
COC(=O)N[C@H]1CCc2cccc3c2N(C1=O)[C@H](c1ncc(-c2ccc(-c4cnc5cc(-c6cnc([C@@H]7CCCN7C(=O)[C@H](NC(=O)OC)c7ccccc7)[nH]6)ccc5n4)cc2)[nH]1)C3 [Compound I-55, ((2S,5S)-2-{5-[4-(6-{2-[(S)-1-((R)-2-Methoxycarbonylamino-2-phenyl-acetyl)-pyrrolidin-2-yl]-3H-imidazol-4-yl}-quinoxalin-2-yl)-phenyl]-1H-imidazol-2-yl}-4-oxo-1,2,4,5,6,7-hexahydro-azepino[3,2,1-hi]indol-5-yl)-carbamic acid methyl ester] | 0.79 | 10
COC(=O)N[C@H]1CCc2cccc3c2N(C1=O)[C@H](c1ncc(-c2ccc4nc(-c5ccc(-c6cnc([C@@H]7CCCN7C(=O)[C@@H](NC(=O)OC)C(C)C)[nH]6)cc5)cnc4c2)[nH]1)C3 [Compound I-59, ((2S,5S)-2-{5-[2-(4-{2-[(S)-1-((S)-2-Methoxycarbonylamino-3-methyl-butyryl)-pyrrolidin-2-yl]-3H-imidazol-4-yl}-phenyl)-quinoxalin-6-yl]-1H-imidazol-2-yl}-4-oxo-1,2,4,5,6,7-hexahydro-azepino[3,2,1-hi]indol-5-yl)-carbamic acid methyl ester] | 0.709 | 70
